Reference: patent US8697629B2, “Modulation of intracellular signaling” (Angstrom Pharmaceuticals, Inc., priority 2010, dated 2014)

Key:
ERK 1/2 = ERK 1/2 phosphorylation (T202/Y204) in SKOV3 cells, immunoblot; assay type: cell-based
Experimental: (§1) Cells were detached from their culture vessels by brief trypsinization, suspended in complete media and centrifuged at 250×g for 10 min at room temperature. The cell pellets were suspended in Dulbeco's phosphate buffered saline (DPBS) and re-centrifuged for a total of three washes. The cells were then re-suspended at 3.33E5/ml in 24 ml of either RPMI containing 0.5% BSA (Sigma Chem. Co. #A0336) (RPMI/BSA) or the conditioned media of growing NIH3T3 fibroblasts (10% FBS in DMEM) supplemented with 10 ng/ml vascular endothelial growth factor (VEGF) (CMN). The cells were then treated with or without 100 ug/ml soluble hyaluronic acid (HA; human umbilical, Calbiochem #385902) for 30 min at 37° C. under 5% CO2. Aliquots representing 2E6 cells were then plated into 10 cm culture dishes and A6 added to yield final concentrations of 0, 10, 100 and 1000 nM. The cells were cultured overnight (18 hr) at 37° C. under 5% CO2.
(§2) After 18 hr of treatment, the media were aspirated from the 10 cm dishes and saved. The plates were washed 3 times with 4 ml of ice-cold DPBS which were pooled with the reserved non-adherent cells. The non-adherent cells were centrifuged at 250×g for 10 min at 4° C., washed twice with cold DPBS, drained and lysed in 50 ul of cold RIPA buffer (ThermoScientific #89901) containing cocktails of broad spectrum phosphatase inhibitors (Calbiochem #524625; used at 2× final concentration) and protease inhibitors (Sigma #P8340) (RIPA/inh.). The 10 cm dishes were drained of remaining wash and the adherent cells lysed by scraping in 200 μL of cold RIPA/inh. For each test condition, the lysates of the non-adherent and adherent populations were combined, vortexed and then centrifuged at 14,000 rpm at 4° C. for 20 min. Aliquots of the cleared lysates were frozen at −80° C. immediately. A small aliquot was reserved for total protein analysis using a BCA Protein Assay Kit (Calbiochem #71285-3).
Samples representing 20 μg of total protein of each lysate were solubilized in the presence of 50 mM Tris pH 6.8, 10% glycerol, 2% SDS and 100 mM DTT for 5 min at 95° C. and then loaded onto 10-20% acrylamide gels (BioRad #345-0044, Tris-HCl, 1 mm, 26 well, 15 μL/well). Electrophoresis was performed using Laemli electrophoresis buffer (0.1% SDS, 25 mM Tris, 192 mM glycine) at 200 V, constant voltage, for one hour. Upon completion of electrophoresis, the proteins were transferred to Immun-Blot PVDF membranes (BioRad #162-0238) in ice-cold 20% methanol in 25 mM Tris, 192 mM glycine for 2 hr at 0.5 Amps, constant current/blotting apparatus. The membranes were then cut vertically between molecular weight markers and in half at the 64 kDa marker to generate pieces for screening of higher molecular weight proteins (e.g., FAK) and lower molecular weight proteins (e.g., MEK and GAPDH). The blots were then blocked for a minimum of 4 hrs at room temperature in 3% bovine serum albumin (Sigma A0336) in 50 mM Tris, pH 7.4, 145 mM NaCl, 0.05% Tween-20 (TTBS) containing 0.05% sodium azide.
Upon completion of the primary antibody incubation, the blots were washed three times for 10 min in TTBS and then incubated with 1/25,000 dilutions of peroxidase-conjugated donkey anti-mouse IgG (Jackson ImmunoResearch #715-035-150) or peroxidase-conjugated donkey anti-rabbit IgG (Jackson ImmunoResearch #711-035-152) in TTBS containing 3% BSA for one hour at room temperature. […]

B16 melanoma cells = experiment: B16 melanoma lung metastasis model; assay type: in vivo, C57BL/6J mice; conditions: melanoma cells injected in the tail vein
Experimental: The B16 melanoma metastasis is well known in the art. A typical protocol for assessing the inhibitory effect of a compound on metastasis is described below. Such a protocol was followed to assess the effect of Å6 on metastasis.
Briefly, B16 melanoma cells can be cultured in RPMI-1640 with 10% fetal bovine serum at 37° C. in an atmosphere of 95% air and 5% CO2. C57BL/6J mice of six to eight weeks can be purchased from commercial suppliers. For the lung metastasis model, about 1×10^5 melanoma cells suspended in 100 μl saline were injected in the tail vein in the presence or absence of Å6. Administration of the Å6 peptide inhibited the lung metastasis by 50% or more.

CD44 = biological target: T1, CD44 (Homo sapiens, UniProt P16070); experiment: Dimerization of CD44 in SKOV3 cells, anti-CD44 B-F24 immunoblot; assay type: cell-based; conditions: SKOV3 cultured 20 hr with 1 or 10 μM Å6, non-reducing
T1 construct: endogenous in cells; host or cells: SKOV3 cells
T1 sequence (P16070 21-742): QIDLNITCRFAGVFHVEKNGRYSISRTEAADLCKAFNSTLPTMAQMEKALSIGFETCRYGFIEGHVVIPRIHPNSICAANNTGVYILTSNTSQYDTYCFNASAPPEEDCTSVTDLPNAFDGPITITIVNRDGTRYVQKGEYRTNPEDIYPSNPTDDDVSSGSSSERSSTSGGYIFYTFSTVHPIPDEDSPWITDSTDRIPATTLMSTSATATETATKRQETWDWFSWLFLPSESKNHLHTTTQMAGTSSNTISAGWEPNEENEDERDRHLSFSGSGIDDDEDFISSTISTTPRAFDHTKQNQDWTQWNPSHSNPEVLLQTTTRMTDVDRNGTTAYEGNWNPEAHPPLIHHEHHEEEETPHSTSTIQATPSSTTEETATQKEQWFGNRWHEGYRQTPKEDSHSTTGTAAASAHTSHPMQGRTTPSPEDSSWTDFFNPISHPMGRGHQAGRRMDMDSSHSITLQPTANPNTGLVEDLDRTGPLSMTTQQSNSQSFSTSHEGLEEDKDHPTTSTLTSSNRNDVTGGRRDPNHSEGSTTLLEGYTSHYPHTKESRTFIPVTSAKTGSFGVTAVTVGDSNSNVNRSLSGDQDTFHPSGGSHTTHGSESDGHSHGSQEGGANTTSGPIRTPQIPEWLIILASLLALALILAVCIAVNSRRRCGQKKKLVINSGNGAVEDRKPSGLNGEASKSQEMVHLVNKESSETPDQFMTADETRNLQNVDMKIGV
Experimental: In FIG. 13 SKOV3 cells were cultured for 20 hr with no additions, 1 or 10 μM Å6 or 100 ng/ml PMA. Triton X-100 lysates were generated and further solubilized in SDS-PAGE sample buffer under non-reducing conditions. Aliquots representing 7.5 μg of cellular protein were subjected to SDS-PAGE followed by immunoblot analysis with the anti-CD44 murine monoclonal B-F24. The presence of stained higher molecular weight bands can be indicative of CD44 dimers and/or oligomers.

FAK = FAK phosphorylation in SKOV3 cells, immunoblot and densitometry; assay type: cell-based
Experimental: as §1, §2
(§3) Samples representing 20 μg of total protein of each lysate were solubilized in the presence of 50 mM Tris pH 6.8, 10% glycerol, 2% SDS and 100 mM DTT for 5 min at 95° C. and then loaded onto 10-20% acrylamide gels (BioRad #345-0044, Tris-HCl, 1 mm, 26 well, 15 μL/well). Electrophoresis was performed using Laemli electrophoresis buffer (0.1% SDS, 25 mM Tris, 192 mM glycine) at 200 V, constant voltage, for one hour. Upon completion of electrophoresis, the proteins were transferred to Immun-Blot PVDF membranes (BioRad #162-0238) in ice-cold 20% methanol in 25 mM Tris, 192 mM glycine for 2 hr at 0.5 Amps, constant current/blotting apparatus. […]
(§4) The integrated densities (id) of the bands of interest were measured using Image J software (NIH). […]

MEK = MEK phosphorylation (S217/221) in SKOV3 cells, immunoblot and densitometry; assay type: cell-based
Experimental: as §1, §2, §3, §4

acetyl-Lys-Pro-Ser-Ser-Pro-Pro-Glu-Glu-NH2 (Ac-KPSSPPEE-NH2) [Å6]
pERK/Erk (ERK 1/2; CM/V): appears to have increased | pERK/Erk (ERK 1/2; CM/V with HA present): decreased | pERK/Erk (ERK 1/2; basal media (RPMI/BSA)): increased pERK/Erk in a dose dependent manner | pErk/Erk response to HA (ERK 1/2; basal media with HA): decreased this response to HA | inhibition of lung metastasis (B16 melanoma cells): ≥ 50% | CD44 higher molecular weight bands (dimers and/or oligomers) (CD44): higher molecular weight bands are formed | FAK phosphorylation (FAK; CM/V media): enhanced | FAK phosphorylation in the presence of HA (FAK; RPMI/BSA): restored | pFAK/FAK ratios (FAK; SKOV3, all conditions, Y397, Y576/577, Y925): enhanced pFAK/FAK ratios in a dose-dependent manner | CM/V-increased pMEK/MEK ratios (MEK; CM/V): potentiated this response | pMEK/MEK (MEK; under all conditions): enhanced
